Measurements taken from patent publication US20230265151A1, “GIP/GLP1 CO-AGONIST COMPOUNDS” (priority 2020, published 2023).
Where two headings read alike, the source gives them in different places.

Columns and labels:
[1] = biological target: T1, human GIP receptor (hGIPR) (Homo sapiens, UniProt P48546); assay: [125I]-GIP binding, SPA with membranes of CHO cells expressing hGIPR
T1 construct: expressed in transfected cells; crude membranes
T1 sequence (P48546 22-466): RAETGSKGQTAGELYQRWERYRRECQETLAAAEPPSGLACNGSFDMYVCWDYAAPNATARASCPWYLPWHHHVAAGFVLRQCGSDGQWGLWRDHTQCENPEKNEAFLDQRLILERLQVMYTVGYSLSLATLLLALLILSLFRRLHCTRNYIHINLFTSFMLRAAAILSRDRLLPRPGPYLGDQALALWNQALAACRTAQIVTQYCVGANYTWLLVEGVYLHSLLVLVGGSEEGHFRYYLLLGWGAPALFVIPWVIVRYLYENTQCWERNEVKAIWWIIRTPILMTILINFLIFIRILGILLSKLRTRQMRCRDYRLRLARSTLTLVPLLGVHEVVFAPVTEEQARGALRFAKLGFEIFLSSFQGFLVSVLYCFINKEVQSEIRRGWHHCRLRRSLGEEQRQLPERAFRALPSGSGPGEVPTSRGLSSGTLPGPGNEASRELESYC

[2] = biological target: T2, hGCGR (Homo sapiens, UniProt P47871); assay: Functional cAMP formation (HTRF) in HEK-293 clonal cells expressing hGCGR, 0.1% bovine casein, without or with 1.0% human serum albumin; assay type: cell-based; details: cAMP, 37° C.
T2 construct: expressed in transfected cells
In short: (§1)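 Cells were stimulated with peptide for 30 min at 37° C, then lysed in buffer carrying cAMP-d2 and anti-cAMP Eu3+-cryptate for a competitive HTRF read after at least 60 min at room temperature. The 665/620 nm ratio was converted to nM cAMP against a standard curve.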

[3] = biological target: T3, hGIPR (Homo sapiens, UniProt P48546); assay: Functional cAMP formation (HTRF) in HEK-293 clonal cells expressing hGIPR, 0.1% bovine casein, without or with 1.0% human serum albumin; assay type: cell-based; details: for Emax: percent of maximal response to GIP(1-42)NH2; for EC50: cAMP
T3 construct: expressed in transfected cells
T3 sequence (P48546 22-466): T1 sequence (P48546 22-466)
In short: as §1

[4] = biological target: hGLP-1R (Homo sapiens, UniProt P43220); assay: Functional cAMP formation (HTRF) in HEK-293 clonal cells expressing hGLP-1R, 0.1% bovine casein, without or with 1.0% human serum albumin; assay type: cell-based; set-up: expressed in transfected cells; details: for Emax: percent of maximal response to GLP-1(7-36)NH2; for EC50: cAMP
In short: as §1

[5] = hGCGR EC50, nM (SEM, n), 0.1% bovine casein (no human serum albumin), geometric mean
[6] = hGCGR EC50, nM (SEM, n), 0.1% bovine casein and 1.0% human serum albumin, geometric mean (SEM, n)
[7] = HEK293, read-out: hGIPR Emax, % ± SEM, cAMP, 37° C., 0.1% bovine casein and 1.0% human serum albumin
[8] = hGIPR EC50, nM (SEM, n), 37° C., 0.1% bovine casein (no human serum albumin), geometric mean
[9] = HEK293, read-out: hGLP-1R Emax, % ± SEM, cAMP, 37° C., 0.1% bovine casein, arithmetic mean
[10] = hGLP-1R EC50, nM (SEM, n), 37° C., 0.1% bovine casein (no human serum albumin), geometric mean
[11] = human GIPR, geometric mean (SEM, n), read-out: Binding Affinity Ki, nM (SEM, n) hGIPR
[12] = 0.1% bovine casein (no human serum albumin), geometric mean, read-out: hGCGR EC50, nM (SEM, n)
[13] = 0.1% bovine casein and 1.0% human serum albumin, geometric mean (SEM, n), read-out: hGCGR EC50, nM (SEM, n)
[14] = HEK293, cAMP, 37° C., 0.1% bovine casein and 1.0% human serum albumin, read-out: hGIPR Emax, % ± SEM
[15] = 37° C., 0.1% bovine casein (no human serum albumin), geometric mean, read-out: hGIPR EC50, nM (SEM, n)
[16] = 37° C., 0.1% bovine casein (no human serum albumin), geometric mean, read-out: hGLP-1R EC50, nM (SEM, n)

T2 sequence (P47871 26-477): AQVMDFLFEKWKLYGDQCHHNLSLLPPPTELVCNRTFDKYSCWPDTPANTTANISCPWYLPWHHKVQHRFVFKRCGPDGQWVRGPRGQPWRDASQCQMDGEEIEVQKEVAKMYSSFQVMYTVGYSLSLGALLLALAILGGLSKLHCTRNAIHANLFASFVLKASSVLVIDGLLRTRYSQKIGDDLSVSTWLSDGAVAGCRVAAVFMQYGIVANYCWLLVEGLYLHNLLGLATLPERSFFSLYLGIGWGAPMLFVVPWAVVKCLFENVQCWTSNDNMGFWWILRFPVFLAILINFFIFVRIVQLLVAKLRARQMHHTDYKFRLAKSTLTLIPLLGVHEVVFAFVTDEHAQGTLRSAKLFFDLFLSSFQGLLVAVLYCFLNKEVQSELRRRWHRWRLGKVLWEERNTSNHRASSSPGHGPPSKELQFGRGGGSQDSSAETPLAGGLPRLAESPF
Sequence of hGLP-1R (P43220 24-463): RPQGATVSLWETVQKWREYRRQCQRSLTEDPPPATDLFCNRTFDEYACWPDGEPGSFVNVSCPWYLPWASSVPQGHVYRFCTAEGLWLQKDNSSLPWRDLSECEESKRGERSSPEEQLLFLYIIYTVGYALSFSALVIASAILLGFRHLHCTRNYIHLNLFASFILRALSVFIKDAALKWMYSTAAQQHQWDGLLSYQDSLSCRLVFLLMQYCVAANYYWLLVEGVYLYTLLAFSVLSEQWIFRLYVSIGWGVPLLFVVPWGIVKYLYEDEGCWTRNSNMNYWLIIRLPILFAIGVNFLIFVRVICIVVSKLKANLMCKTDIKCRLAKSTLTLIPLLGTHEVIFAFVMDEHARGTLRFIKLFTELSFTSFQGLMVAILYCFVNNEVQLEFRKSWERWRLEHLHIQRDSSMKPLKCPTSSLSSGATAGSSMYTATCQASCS

Structure (SMILES) | Ki [1] | EC50 [2, 5] | EC50 [2, 6] | Emax [3, 7] | EC50 [3, 8] | Emax [4, 9] | EC50 [4, 10] | Ki [1, 11] | EC50 [2, 12] | EC50 [2, 13] | Emax [3, 14] | Emax ([3]; HEK293, cAMP, 37° C., 0.1% bovine casein, arithmetic mean, read-out: hGIPR Emax, % ± SEM) | EC50 [3, 15] | Emax ([4]; HEK293, cAMP, 37° C., 0.1% bovine casein and 1.0% human serum albumin, read-out: hGLP-1R Emax, % ± SEM) | EC50 [4, 16] | Emax ([3]; HEK293, read-out: hGIPR Emax, % ± SEM, cAMP, 37° C., 0.1% bovine casein, arithmetic mean) | EC50 ([3]; 37° C., 0.1% bovine casein and 1.0% human serum albumin, geometric mean (SEM, n), read-out: hGIPR EC50, nM (SEM, n)) | Emax ([4]; HEK293, cAMP, 37° C., 0.1% bovine casein, arithmetic mean, read-out: hGLP-1R Emax, % ± SEM) | EC50 ([4]; 37° C., 0.1% bovine casein and 1.0% human serum albumin, geometric mean (SEM, n), read-out: hGLP-1R EC50, nM (SEM, n))
CC[C@H](C)[C@H](NC(=O)[C@H](CC(C)C)NC(=O)[C@](C)(Cc1ccc(O)cc1)NC(=O)[C@H](CCCCNC(=O)COCCOCCNC(=O)COCCOCCNC(=O)COCCOCCNC(=O)CC[C@H](NC(=O)CCCCCCCCCOc1ccc(C(=O)O)cc1)C(=O)O)NC(=O)[C@@H](NC(=O)[C@H](Cc1ccccc1)NC(=O)[C@H](CCC(=O)O)NC(=O)C(C)(C)NC(=O)[C@H](CCC(N)=O)NC(=O)[C@H](C)NC(=O)[C@H](CCC(N)=O)NC(=O)[C@H](CCCN)NC(=O)[C@H](CC(=O)O)NC(=O)[C@H](CC(C)C)NC(=O)[C@](C)(CC(C)C)NC(=O)[C@@H](NC(=O)C(C)(C)NC(=O)[C@H](Cc1ccncc1)NC(=O)[C@H](CC(=O)O)NC(=O)[C@H](CO)NC(=O)[C@@H](NC(=O)[C@](C)(Cc1ccccc1F)NC(=O)[C@@H](NC(=O)CNC(=O)[C@H](CCC(=O)O)NC(=O)C(C)(C)NC(=O)[C@@H](N)Cc1ccc(O)cc1)[C@@H](C)O)[C@@H](C)O)[C@@H](C)CC)[C@@H](C)CC)C(=O)N[C@@H](CCCCNC(=O)COCCOCCNC(=O)COCCOCCNC(=O)COCCOCCNC(=O)CC[C@H](NC(=O)CCCCCCCCCOc1ccc(C(=O)O)cc1)C(=O)O)C(=O)NCC(=O)NCC(=O)N1CCC[C@H]1C(=O)N[C@@H](CO)C(=O)N[C@@H](CO)C(=O)NCC(=O)N[C@@H](C)C(=O)N1CCC[C@H]1C(=O)N1CCC[C@H]1C(=O)N1CCC[C@H]1C(=O)N[C@@H](CO)C(N)=O [Example 464] | 0.0261 nM | > 10100 nM | > 10100 nM | 95.5% | 0.00955 nM | 114% | 0.161 nM |  |  |  |  |  |  |  |  |  |  |  | 
CC[C@H](C)[C@H](NC(=O)[C@H](CC(C)C)NC(=O)[C@](C)(Cc1ccc(O)cc1)NC(=O)[C@@H](CCC(=O)O)NC(=O)[C@@H](NC(=O)[C@H](Cc1ccccc1)NC(=O)[C@H](CCC(=O)O)NC(=O)C(C)(C)NC(=O)[C@H](CCC(N)=O)NC(=O)[C@H](C)NC(=O)[C@H](CCCCNC(=O)COCCOCCNC(=O)CCCCCCCNC(=O)CCCCCCCCCCCCC(=O)O)NC(=O)[C@H](CCCN)NC(=O)[C@H](CC(=O)O)NC(=O)[C@H](CC(C)C)NC(=O)[C@](C)(CC(C)C)NC(=O)[C@@H](NC(=O)C(C)(C)NC(=O)[C@H](Cc1ccncc1)NC(=O)[C@H](CC(=O)O)NC(=O)[C@H](CO)NC(=O)[C@@H](NC(=O)[C@](C)(Cc1ccccc1F)NC(=O)[C@@H](NC(=O)CNC(=O)[C@H](CCC(=O)O)NC(=O)C(C)(C)NC(=O)[C@@H](N)Cc1ccc(O)cc1)[C@@H](C)O)[C@@H](C)O)[C@@H](C)CC)[C@@H](C)CC)C(=O)N[C@@H](CCCCNC(=O)COCCOCCNC(=O)CCCCCCCNC(=O)CCCCCCCCCCCCC(=O)O)C(=O)NCC(=O)NCC(=O)N1CCC[C@H]1C(=O)N[C@@H](CO)C(=O)N[C@@H](CO)C(=O)NCC(=O)N[C@@H](C)C(=O)N1CCC[C@H]1C(=O)N1CCC[C@H]1C(=O)N1CCC[C@H]1C(=O)N[C@@H](CO)C(N)=O [Example 465] |  |  |  |  |  |  |  | 0.0464 nM | > 9950 nM | > 9950 nM | 94.4% | 94.9% | 0.0174 nM | 93.3% | 0.413 nM |  |  |  | 
CC[C@H](C)[C@H](NC(=O)[C@H](CC(C)C)NC(=O)[C@](C)(Cc1ccc(O)cc1)NC(=O)[C@H](CCCCNC(=O)CCOCCOCCOCCOCCOCCOCCNC(=O)CC[C@H](NC(=O)CCCCCCCCCOc1ccc(C(=O)O)cc1)C(=O)O)NC(=O)[C@@H](NC(=O)[C@H](Cc1ccccc1)NC(=O)[C@H](CCCN)NC(=O)C(C)(C)NC(=O)[C@H](CCC(N)=O)NC(=O)[C@H](C)NC(=O)[C@H](CCC(N)=O)NC(=O)[C@H](CCCN)NC(=O)[C@H](CC(=O)O)NC(=O)[C@H](CC(C)C)NC(=O)[C@](C)(CC(C)C)NC(=O)[C@@H](NC(=O)C(C)(C)NC(=O)[C@H](Cc1ccncc1)NC(=O)[C@H](CC(=O)O)NC(=O)[C@H](CO)NC(=O)[C@@H](NC(=O)[C@](C)(Cc1ccccc1F)NC(=O)[C@@H](NC(=O)CNC(=O)[C@H](CCC(=O)O)NC(=O)C(C)(C)NC(=O)[C@@H](N)Cc1ccc(O)cc1)[C@@H](C)O)[C@@H](C)O)[C@@H](C)CC)[C@@H](C)CC)C(=O)N[C@@H](CCCCNC(=O)CCOCCOCCOCCOCCOCCOCCNC(=O)CC[C@H](NC(=O)CCCCCCCCCOc1ccc(C(=O)O)cc1)C(=O)O)C(=O)NCC(=O)NCC(=O)N1CCC[C@H]1C(=O)N[C@@H](CO)C(=O)N[C@@H](CO)C(=O)NCC(=O)N[C@@H](C)C(=O)N1CCC[C@H]1C(=O)N1CCC[C@H]1C(=O)N1CCC[C@H]1C(=O)N[C@@H](CO)C(N)=O [Example 468] | 0.0291 nM | > 10100 nM | > 10100 nM | 85.9% | 0.00991 nM | 109% | 0.168 nM |  |  |  |  |  |  |  |  | 97.1% |  |  | 
CC[C@H](C)[C@H](NC(=O)[C@H](CC(C)C)NC(=O)[C@](C)(Cc1ccc(O)cc1)NC(=O)[C@H](CCCCNC(=O)COCCOCCNC(=O)COCCOCCNC(=O)COCCOCCNC(=O)CC[C@H](NC(=O)CCCCCCCCCCCCC(=O)O)C(=O)O)NC(=O)[C@@H](NC(=O)[C@H](Cc1ccccc1)NC(=O)[C@H](CCCN)NC(=O)C(C)(C)NC(=O)[C@H](CCC(N)=O)NC(=O)[C@H](C)NC(=O)[C@H](CCC(N)=O)NC(=O)[C@H](CCCN)NC(=O)[C@H](CC(=O)O)NC(=O)[C@H](CC(C)C)NC(=O)[C@](C)(CC(C)C)NC(=O)[C@@H](NC(=O)C(C)(C)NC(=O)[C@H](Cc1ccncc1)NC(=O)[C@H](CC(=O)O)NC(=O)[C@H](CO)NC(=O)[C@@H](NC(=O)[C@](C)(Cc1ccccc1F)NC(=O)[C@@H](NC(=O)CNC(=O)[C@H](CCC(=O)O)NC(=O)C(C)(C)NC(=O)[C@@H](N)Cc1ccc(O)cc1)[C@@H](C)O)[C@@H](C)O)[C@@H](C)CC)[C@@H](C)CC)C(=O)N[C@@H](CCCCNC(=O)COCCOCCNC(=O)COCCOCCNC(=O)COCCOCCNC(=O)CC[C@H](NC(=O)CCCCCCCCCCCCC(=O)O)C(=O)O)C(=O)NCC(=O)NCC(=O)N1CCC[C@H]1C(=O)N[C@@H](CO)C(=O)N[C@@H](CO)C(=O)NCC(=O)N[C@@H](C)C(=O)N1CCC[C@H]1C(=O)N1CCC[C@H]1C(=O)N1CCC[C@H]1C(=O)N[C@@H](CO)C(N)=O [Example 476] |  |  |  |  |  |  |  | 0.0351 nM | > 9950 nM | > 9950 nM | 81.8% |  | 0.00886 nM |  | 0.117 nM |  | 0.154 nM | 114% | 1.5 nM
